The CheMixHub viscosity set
Several values for one entry are separate records, joined by “and”; a condition that tells them apart may be missing. Equal values may be shown once. ± gives the uncertainty stated by the source.

Experiment: xn = mol fraction of the nth substance listed

CCOC(=O)CCl + CCCCCCCCC
viscosity [mPa·s], 101.33 kPa
Conditions	x1 = 0.1004	x1 = 0.2033	x1 = 0.3013	x1 = 0.4018	x1 = 0.5019	x1 = 0.6012	x1 = 0.7037	x1 = 0.8037	x1 = 0.9012
298.15 K	0.66 ± 0.012	0.665 ± 0.013	0.686 ± 0.012	0.716 ± 0.013	0.755 ± 0.013	0.799 ± 0.014	0.849 ± 0.015	0.907 ± 0.017	0.982 ± 0.019
303.15 K	0.62 ± 0.011	0.623 ± 0.011	0.644 ± 0.011	0.67 ± 0.012	0.705 ± 0.013	0.743 ± 0.013	0.792 ± 0.014	0.842 ± 0.014	0.912 ± 0.015
308.15 K	0.58 ± 0.011	0.583 ± 0.01	0.602 ± 0.011	0.624 ± 0.011	0.654 ± 0.012	0.688 ± 0.013	0.735 ± 0.014	0.778 ± 0.014	0.843 ± 0.015

C[N+](C)(C)C.[OH-] + CS(C)=O
viscosity [mPa·s], 100 kPa
Conditions	298.15 K	303.15 K	308.15 K	313.15 K
x1 = 0.0177	2.05 ± 0.04	1.87 ± 0.04	1.73 ± 0.04	1.63 ± 0.04
x1 = 0.0538	2.18 ± 0.05	2.01 ± 0.04	1.87 ± 0.04	1.77 ± 0.04
x1 = 0.091	2.24 ± 0.05	2.07 ± 0.04	1.94 ± 0.04	1.86 ± 0.04
x1 = 0.1294	2.34 ± 0.05	2.18 ± 0.05	2.06 ± 0.04	1.98 ± 0.04
x1 = 0.1691	2.44 ± 0.05	2.3 ± 0.05	2.18 ± 0.05	2.1 ± 0.05
x1 = 0.2101	2.55 ± 0.05	2.42 ± 0.05	2.3 ± 0.05	2.23 ± 0.05
x1 = 0.2314	2.61 ± 0.06	2.48 ± 0.05	2.36 ± 0.05	2.3 ± 0.05
x1 = 0.2961	2.76 ± 0.06	2.64 ± 0.06	2.54 ± 0.05	2.48 ± 0.05
x1 = 0.3645	2.9 ± 0.06	2.81 ± 0.06	2.71 ± 0.06	2.65 ± 0.06
x1 = 0.4366	3.04 ± 0.06	2.94 ± 0.06	2.86 ± 0.06	2.81 ± 0.06
x1 = 0.4868	3.12 ± 0.07	3.03 ± 0.06	2.95 ± 0.06	2.91 ± 0.06
x1 = 0.5388	3.18 ± 0.07	3.1 ± 0.07	3.02 ± 0.06	2.98 ± 0.06
x1 = 0.6206	3.25 ± 0.07	3.17 ± 0.07	3.09 ± 0.07	3.07 ± 0.07
x1 = 0.7071	3.26 ± 0.07	3.2 ± 0.07	3.12 ± 0.07	3.1 ± 0.07
x1 = 0.7677	3.23 ± 0.07	3.18 ± 0.07	3.1 ± 0.07	3.06 ± 0.06
x1 = 0.8307	3.15 ± 0.07	3.12 ± 0.07	3.05 ± 0.06	3.02 ± 0.06
x1 = 0.8963	3.03 ± 0.06	3.02 ± 0.06	2.94 ± 0.06	2.9 ± 0.06
x1 = 0.9647	2.86 ± 0.06	2.84 ± 0.06	2.76 ± 0.06	2.71 ± 0.06

CCOCCOCCOCC + ClC(Cl)Cl
298.15 K, 101 kPa
Conditions	viscosity [mPa·s]
x1 = 0.0089	0.538 ± 0.014
x1 = 0.0178	0.56 ± 0.015
x1 = 0.0263	0.579 ± 0.015
x1 = 0.0446	0.62 ± 0.016
x1 = 0.0878	0.723 ± 0.018
x1 = 0.1473	0.862 ± 0.02
x1 = 0.1744	0.916 ± 0.021
x1 = 0.2224	1.012 ± 0.022
x1 = 0.2736	1.108 ± 0.022
x1 = 0.3402	1.194 ± 0.022
x1 = 0.345	1.208 ± 0.022
x1 = 0.3725	1.248 ± 0.022
x1 = 0.4081	1.284 ± 0.022
x1 = 0.4541	1.316 ± 0.021
x1 = 0.509	1.341 ± 0.02
x1 = 0.5754	1.353 ± 0.019
x1 = 0.626	1.358 ± 0.017
x1 = 0.6804	1.352 ± 0.016
x1 = 0.7347	1.342 ± 0.015
x1 = 0.7875	1.326 ± 0.013
x1 = 0.8348	1.312 ± 0.013
x1 = 0.8675	1.309 ± 0.012
x1 = 0.9216	1.292 ± 0.011
x1 = 0.9756	1.278 ± 0.011

c1ccc2c(c1)CCCC2 + Cc1ccccc1
101.3 kPa
Conditions	viscosity
298 K, x2 = 0.2	1.55 ± 0.021 mPa·s
298.1 K, x2 = 0.4	1.133 ± 0.015 mPa·s
298.2 K, x2 = 0.6	0.9208 ± 0.013 mPa·s
298.2 K, x2 = 0.8	0.7036 ± 0.0096 mPa·s
303.2 K, x2 = 0.5	0.9625 ± 0.013 mPa·s
308.2 K, x2 = 0.4	0.9772 ± 0.013 mPa·s
308.2 K, x2 = 0.6	0.8034 ± 0.011 mPa·s
308.2 K, x2 = 0.8	0.6177 ± 0.0085 mPa·s and 0.6155 ± 0.0085 mPa·s
313.1 K, x2 = 0.2	1.209 ± 0.017 mPa·s
313.1 K, x2 = 0.5	0.8373 ± 0.011 mPa·s
318.1 K, x2 = 0.4	0.8532 ± 0.012 mPa·s
318.2 K, x2 = 0.6	0.7034 ± 0.0096 mPa·s
318.2 K, x2 = 0.8	0.553 ± 0.0076 mPa·s
323.1 K, x2 = 0.5	0.7376 ± 0.01 mPa·s

CCCCOCCO + OCCO
101 kPa
Conditions	viscosity [mPa·s]
293.15 K, x1 = 0.0517	19.96 ± 0.13
293.15 K, x1 = 0.099	18.69 ± 0.12
293.15 K, x1 = 0.2024	15.74 ± 0.1
293.15 K, x1 = 0.2993	13.1 ± 0.082
293.15 K, x1 = 0.4009	10.68 ± 0.066
293.15 K, x1 = 0.4475	9.72 ± 0.06
293.15 K, x1 = 0.5022	8.702 ± 0.053
293.15 K, x1 = 0.5447	7.996 ± 0.049
293.15 K, x1 = 0.6011	7.158 ± 0.044
293.15 K, x1 = 0.7009	5.905 ± 0.036
293.15 K, x1 = 0.8048	4.826 ± 0.03
293.15 K, x1 = 0.8992	3.996 ± 0.025
293.15 K, x1 = 0.9413	3.661 ± 0.023
298.15 K, x1 = 0.0515	16.18 ± 0.11
298.15 K, x1 = 0.1025	15.09 ± 0.098
298.15 K, x1 = 0.1973	12.9 ± 0.083
298.15 K, x1 = 0.2977	10.71 ± 0.068
298.15 K, x1 = 0.3863	9.036 ± 0.057
298.15 K, x1 = 0.4425	8.124 ± 0.051
298.15 K, x1 = 0.4743	7.652 ± 0.048
298.15 K, x1 = 0.5523	6.625 ± 0.041
298.15 K, x1 = 0.6012	6.061 ± 0.038
298.15 K, x1 = 0.6986	5.082 ± 0.032
298.15 K, x1 = 0.783	4.349 ± 0.027
298.15 K, x1 = 0.8985	3.469 ± 0.022
298.15 K, x1 = 0.9474	3.145 ± 0.02
303.15 K, x1 = 0.0582	12.73 ± 0.085
303.15 K, x1 = 0.098	12.07 ± 0.08
303.15 K, x1 = 0.2036	10.21 ± 0.067
303.15 K, x1 = 0.2996	8.621 ± 0.056
303.15 K, x1 = 0.4	7.191 ± 0.046
303.15 K, x1 = 0.4503	6.57 ± 0.042
303.15 K, x1 = 0.5015	5.989 ± 0.039
303.15 K, x1 = 0.543	5.563 ± 0.036
303.15 K, x1 = 0.6003	5.022 ± 0.033
303.15 K, x1 = 0.703	4.185 ± 0.027
303.15 K, x1 = 0.8036	3.495 ± 0.022
303.15 K, x1 = 0.8935	2.979 ± 0.019
303.15 K, x1 = 0.95	2.691 ± 0.017

CCOC(=O)CCl + CCCCCC
viscosity [mPa·s], 101.33 kPa
Conditions	x1 = 0.0977	x1 = 0.2029	x1 = 0.3028	x1 = 0.4001	x1 = 0.4982	x1 = 0.6039	x1 = 0.7027	x1 = 0.8032	x1 = 0.9022
298.15 K	0.342 ± 0.005	0.375 ± 0.006	0.416 ± 0.006	0.465 ± 0.007	0.524 ± 0.008	0.602 ± 0.01	0.683 ± 0.012	0.787 ± 0.014	0.923 ± 0.017
303.15 K	0.326 ± 0.004	0.357 ± 0.005	0.396 ± 0.005	0.441 ± 0.006	0.495 ± 0.007	0.566 ± 0.008	0.641 ± 0.009	0.739 ± 0.01	0.861 ± 0.013
308.15 K	0.309 ± 0.004	0.339 ± 0.005	0.377 ± 0.005	0.417 ± 0.006	0.466 ± 0.007	0.53 ± 0.008	0.6 ± 0.009	0.69 ± 0.011	0.8 ± 0.013

CCCCOCCO + C1CCCCC1
viscosity [mPa·s], 101 kPa
Conditions	298.15 K	308.15 K
x1 = 0.0557	0.95 ± 0.016	0.79 ± 0.014
x1 = 0.1501	1.046 ± 0.018	0.866 ± 0.015
x1 = 0.2504	1.162 ± 0.019	0.958 ± 0.016
x1 = 0.3543	1.3 ± 0.021	1.066 ± 0.018
x1 = 0.4488	1.443 ± 0.023	1.178 ± 0.02
x1 = 0.5025	1.532 ± 0.025	1.248 ± 0.021
x1 = 0.5493	1.616 ± 0.026	1.313 ± 0.022
x1 = 0.6485	1.813 ± 0.029	1.465 ± 0.024
x1 = 0.7494	2.043 ± 0.032	1.642 ± 0.026
x1 = 0.8511	2.311 ± 0.036	1.848 ± 0.03
x1 = 0.9556	2.631 ± 0.04	2.091 ± 0.033
